This passage reports GI50 and TGI results from PubChem BioAssay (NCI).

“And” between values parts separate entries of the source, which are not always exact repeats. Equal values may be shown once.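 Exposure lasted 48 hours, with cells grown in 96-well plates and compounds tested at five concentrations. GI50 = concentration required for 50% inhibition of growth. TGI denotes the concentration required for complete inhibition of growth.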

For the first assay, the system named is NCI-H226 lung. Put plainly: DTP human tumour cell line panel, 48 h.
What is called GI50 is the concentration that inhibits growth by half. A word on the TGI: it is the concentration giving total growth inhibition. With `COc1ccc(-c2cn(-c3cc(OC)c(OC)c(OC)c3)c(SCc3ccccc3)n2)cc1OC`, the GI50 is above 100 µM and the TGI is above 100 µM.

Consider `COc1c(C)c2c(c(O)c1C/C=C(\C)CCC(=O)O)C(=O)OC2`, for which the GI50 was 2.58 µM and the TGI is above 100 µM.

Turning to `Cc1cc(O)c(C(C)C)cc1S(=O)(=O)O` (tested in a mixture with another compound), the GI50 is 0.85 µM.

`COc1ccc(-c2nc(-c3nc4ccc(OC)cc4[nH]3)c3ccccn23)cc1`: the GI50 is 6.57 µM and the TGI was above 100 µM.

Consider `COc1cc(C[C@H]2c3cc(OC)c(OC)cc3CCN2C)c(Oc2cc3c(cc2OC)-c2c(OC)c(OC)cc4c2[C@H](C3)N(C)CC4)cc1OC`, for which the GI50 was 19.7 µM; the TGI is 29.4 µM and 34.6 µM.

Turning to `COc1cc(C(=O)O[C@H](C(=O)NCCCCCNC(=O)[C@@H](OC(=O)c2cc(OC)cc3c(C)cccc23)[C@]2(C)CO2)[C@]2(C)CO2)c2cccc(C)c2c1`, the GI50 was 0.93 µM and the TGI stood at 4.09 µM.

Another assay deals with TK-10 renal. Put plainly: DTP human tumour cell line panel, 48 h.
Consider `COc1ccc(-c2cn(-c3cc(OC)c(OC)c(OC)c3)c(SCc3ccccc3)n2)cc1OC`, for which the GI50 is above 100 µM and the TGI was above 100 µM.

`COc1c(C)c2c(c(O)c1C/C=C(\C)CCC(=O)O)C(=O)OC2`: the GI50 is 1.68 µM and the TGI was above 100 µM.

Turning to `Cc1cc(O)c(C(C)C)cc1S(=O)(=O)O` (tested in a mixture with another compound), the GI50 is 1.22 µM.

With `COc1ccc(-c2nc(-c3nc4ccc(OC)cc4[nH]3)c3ccccn23)cc1`, the GI50 is 2.65 µM and the TGI came to 25.6 µM.

Take `COc1cc(C[C@H]2c3cc(OC)c(OC)cc3CCN2C)c(Oc2cc3c(cc2OC)-c2c(OC)c(OC)cc4c2[C@H](C3)N(C)CC4)cc1OC`: the GI50 is 15.7 µM; the TGI is 12.9 µM and 29.2 µM.

As for `COc1cc(C(=O)O[C@H](C(=O)NCCCCCNC(=O)[C@@H](OC(=O)c2cc(OC)cc3c(C)cccc23)[C@]2(C)CO2)[C@]2(C)CO2)c2cccc(C)c2c1`, the GI50 was 0.661 µM and the TGI came out at 2.37 µM.

The subject of the next assay is NCI-H23 lung. Briefly: DTP human tumour cell line panel, 48 h.
As for `COc1ccc(-c2cn(-c3cc(OC)c(OC)c(OC)c3)c(SCc3ccccc3)n2)cc1OC`, the GI50 was above 100 µM and the TGI was above 100 µM.

For `COc1c(C)c2c(c(O)c1C/C=C(\C)CCC(=O)O)C(=O)OC2`, the GI50 is 0.282 µM and the TGI is above 100 µM.

For `Cc1cc(O)c(C(C)C)cc1S(=O)(=O)O` (tested in a mixture with another compound), the GI50 is 0.427 µM; the TGI is > 100 µM and 10.4 µM.

Turning to `COc1ccc(-c2nc(-c3nc4ccc(OC)cc4[nH]3)c3ccccn23)cc1`, the GI50 was 12.7 µM and the TGI is above 100 µM.

Turning to `COc1cc(C[C@H]2c3cc(OC)c(OC)cc3CCN2C)c(Oc2cc3c(cc2OC)-c2c(OC)c(OC)cc4c2[C@H](C3)N(C)CC4)cc1OC`, the GI50 was 17.8 µM; the TGI is 30.2 µM and 36.2 µM.

Regarding `COc1cc(C(=O)O[C@H](C(=O)NCCCCCNC(=O)[C@@H](OC(=O)c2cc(OC)cc3c(C)cccc23)[C@]2(C)CO2)[C@]2(C)CO2)c2cccc(C)c2c1`, the GI50 is 0.179 µM and the concentration for total growth inhibition (TGI) was 0.665 µM.

For the next assay, the system named is NCI-H460 lung. Briefly: DTP human tumour cell line panel, 48 h.
Take `COc1ccc(-c2cn(-c3cc(OC)c(OC)c(OC)c3)c(SCc3ccccc3)n2)cc1OC`: the GI50 was above 100 µM and the total growth inhibition concentration (TGI) is above 100 µM.

As to `COc1c(C)c2c(c(O)c1C/C=C(\C)CCC(=O)O)C(=O)OC2`, the GI50 is 0.116 µM and the TGI is above 100 µM.

Regarding `Cc1cc(O)c(C(C)C)cc1S(=O)(=O)O` (tested in a mixture with another compound), the GI50 is 0.347 µM.

Take `COc1ccc(-c2nc(-c3nc4ccc(OC)cc4[nH]3)c3ccccn23)cc1`: the GI50 is 3.23 µM and the TGI is 14 µM.

Take `COc1cc(C[C@H]2c3cc(OC)c(OC)cc3CCN2C)c(Oc2cc3c(cc2OC)-c2c(OC)c(OC)cc4c2[C@H](C3)N(C)CC4)cc1OC`: the GI50 was 14.1 µM; the TGI was 20.1 µM and 27.5 µM.

On to `COc1cc(C(=O)O[C@H](C(=O)NCCCCCNC(=O)[C@@H](OC(=O)c2cc(OC)cc3c(C)cccc23)[C@]2(C)CO2)[C@]2(C)CO2)c2cccc(C)c2c1`, for which the TGI is 0.675 µM. That is a sub-micromolar value.

In another assay the test system is MOLT-4 leukemia. Put plainly: DTP human tumour cell line panel, 48 h.
As to `COc1ccc(-c2cn(-c3cc(OC)c(OC)c(OC)c3)c(SCc3ccccc3)n2)cc1OC`, the GI50 was 73.3 µM and the TGI is above 100 µM.

In the case of `COc1c(C)c2c(c(O)c1C/C=C(\C)CCC(=O)O)C(=O)OC2`, the GI50 was 0.208 µM and the TGI is above 100 µM.

Consider `Cc1cc(O)c(C(C)C)cc1S(=O)(=O)O` (tested in a mixture with another compound), for which the GI50 was 0.401 µM.

Turning to `COc1ccc(-c2nc(-c3nc4ccc(OC)cc4[nH]3)c3ccccn23)cc1`, the GI50 is 3.37 µM and the TGI was found to be 16.9 µM.

As for `COc1cc(C[C@H]2c3cc(OC)c(OC)cc3CCN2C)c(Oc2cc3c(cc2OC)-c2c(OC)c(OC)cc4c2[C@H](C3)N(C)CC4)cc1OC`, the GI50 is 4.06 µM; the TGI was 20.4 µM and 12.2 µM.

Take `COc1cc(C(=O)O[C@H](C(=O)NCCCCCNC(=O)[C@@H](OC(=O)c2cc(OC)cc3c(C)cccc23)[C@]2(C)CO2)[C@]2(C)CO2)c2cccc(C)c2c1`: the GI50 was below 0.01 µM and the TGI was above 100 µM.
